{
  "source": "paper PMC6658782",
  "about": "“The Novel Arylamidine T-2307 Selectively Disrupts Yeast Mitochondrial Function by Inhibiting Respiratory Chain Complexes” (Antimicrobial Agents and Chemotherapy, 2019)",
  "key": {"whole yeast cells": {"test_system": "whole yeast cells", "assay": "Oxygen consumption of whole yeast cells (oxygen electrode)", "format": "cell-based, Saccharomyces cerevisiae"}, "[1]": {"target": "respiratory chain complex II (Saccharomyces cerevisiae, UniProt P21801+P33421+P37298+Q00711)", "sequence (P21801 21-266)": "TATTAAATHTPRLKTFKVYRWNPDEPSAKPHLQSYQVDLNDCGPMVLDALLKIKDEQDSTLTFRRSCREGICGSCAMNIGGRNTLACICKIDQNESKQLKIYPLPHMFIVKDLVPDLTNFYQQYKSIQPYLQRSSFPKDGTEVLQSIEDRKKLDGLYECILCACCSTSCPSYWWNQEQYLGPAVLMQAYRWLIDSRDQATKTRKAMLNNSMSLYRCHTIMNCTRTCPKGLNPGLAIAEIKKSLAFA", "sequence (P33421 51-198)": "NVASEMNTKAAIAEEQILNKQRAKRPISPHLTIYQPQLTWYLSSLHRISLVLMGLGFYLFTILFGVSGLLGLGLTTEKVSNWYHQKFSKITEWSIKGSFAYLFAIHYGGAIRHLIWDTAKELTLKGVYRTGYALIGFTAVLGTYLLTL", "sequence (P37298 32-181)": "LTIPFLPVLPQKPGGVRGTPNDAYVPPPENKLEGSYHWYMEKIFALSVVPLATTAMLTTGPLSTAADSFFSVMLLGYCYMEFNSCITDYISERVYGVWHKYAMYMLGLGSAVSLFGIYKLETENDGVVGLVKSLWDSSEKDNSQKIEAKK", "sequence (Q00711 29-640)": "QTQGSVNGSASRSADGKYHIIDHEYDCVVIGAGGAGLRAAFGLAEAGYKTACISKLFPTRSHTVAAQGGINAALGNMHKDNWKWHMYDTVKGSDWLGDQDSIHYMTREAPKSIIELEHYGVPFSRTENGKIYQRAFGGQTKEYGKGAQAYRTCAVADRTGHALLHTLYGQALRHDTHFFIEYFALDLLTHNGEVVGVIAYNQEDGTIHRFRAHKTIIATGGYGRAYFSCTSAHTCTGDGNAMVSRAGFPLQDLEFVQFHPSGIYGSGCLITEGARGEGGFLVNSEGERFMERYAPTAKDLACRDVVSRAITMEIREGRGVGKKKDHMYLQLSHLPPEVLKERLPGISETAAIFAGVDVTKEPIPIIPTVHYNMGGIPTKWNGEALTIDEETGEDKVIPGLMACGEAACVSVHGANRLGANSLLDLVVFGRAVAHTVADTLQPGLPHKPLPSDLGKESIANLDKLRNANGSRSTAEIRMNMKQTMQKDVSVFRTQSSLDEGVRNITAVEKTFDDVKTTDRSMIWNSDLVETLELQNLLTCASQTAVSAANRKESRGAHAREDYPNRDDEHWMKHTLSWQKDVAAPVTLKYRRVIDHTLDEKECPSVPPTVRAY", "assay": "Respiratory chain enzymatic activity, complex II, S. cerevisiae", "format": "biochemical"}, "[2]": {"target": "respiratory chain complex I (Bos taurus, UniProt P03887+P17694+P42026)", "assay": "MitoCheck complex I activity assay, bovine heart mitochondria", "format": "biochemical", "experimental": "The enzymatic activities of bovine heart mitochondrial respiratory chain complexes were determined using MitoCheck complex I, complex II/III, and complex IV activity assay kits (Cayman Chemical, Ann Arbor, MI, USA). Bovine heart mitochondria from these kits were used for experiments. The experiments were performed following the manufacturer’s instructions. In the experiments, 2 μM rotenone, 1 mM KCN, and both 1 mM TTFA and 5 μg/ml antimycin A served as positive controls for the inhibition of complex I, complex IV, and complexes II plus III, respectively.\nIn all experiments, the reaction rate of each enzyme was determined by calculating the slope of the linear portion of the curve. Complex I activity in C. albicans was calculated by subtracting the rotenone-insensitive enzymatic activity (with 10 μM rotenone) from the NADH dehydrogenase activity (without rotenone).\nOCRs in isolated mitochondria and intracellular ATP levels were compared between the control and treatment groups using the parametric Dunnett’s multiple-comparison test. P values of <0.05 (comparison of multiple groups) were considered statistically significant. IC50 values were determined from dose-response curves compared with untreated control samples using a four-parameter logistic curve-fitting analysis. Data were analyzed using JMP 13.0 (SAS Institute Japan Ltd., Tokyo, Japan)."}, "[3]": {"target": "respiratory chain complex IV (Bos taurus, UniProt P00396+P00415+P68530)", "assay": "MitoCheck complex IV activity assay, bovine heart mitochondria", "format": "biochemical"}, "Saccharomyces cerevisiae [4]": {"test_system": "Saccharomyces cerevisiae", "assay": "Intracellular ATP levels in yeast (luminescence assay)", "format": "cell-based", "experimental": "Intracellular ATP levels were measured using a previously described method with the following modifications ([25]). S. cerevisiae was grown overnight in a semisynthetic medium (per liter: 20 g of lactate, 0.5 g of glucose, 3 g of yeast extract, 1 g of KH2PO4, 1 g of NH4Cl, 0.5 g of CaCl2·2H2O, 0.5 g of NaCl, and 0.6 g of MgCl2·6H2O; adjusted to pH 5.5 with NaOH). The cells were harvested during the logarithmic-growth phase by centrifugation (3,000 × g at room temperature for 5 min). They were then washed and resuspended in distilled water. The suspension was diluted in a semisynthetic medium to yield 1 × 10^6 cells/ml. After 5 min of incubation at 30°C, T-2307 and antimycin A were added to the suspension. Further, the cells were incubated for 8 h at 30°C. Subsequently, the cells were collected by centrifugation (4,200 × g at 4°C for 5 min). After washes performed with phosphate-buffered saline (PBS; pH 7.2), the cells were resuspended in PBS and diluted to yield 1 × 10^6 cells/ml. ATP levels were measured using the BacTiter-Glo microbial cell viability assay (Promega, Madison, WI, USA), following the manufacturer’s instructions. Luminescence was measured using a microplate reader POLARstar Optima (BMG Labtech GmbH). To determine the viable cell counts, the cell suspension was diluted with PBS and spread on YPD agar. After a 2-day incubation at 30°C, colonies were counted. The intracellular ATP level is expressed as relative light units (RLU)/CFU."}, "Saccharomyces cerevisiae [5]": {"test_system": "Saccharomyces cerevisiae", "assay": "MIC determination, broth microdilution in semisynthetic medium", "format": "cell-based", "experimental": "MIC was determined using the broth microdilution method based on the Clinical and Laboratory Standards Institute method with the following minor modifications ([38]). The medium used for MIC determination was semisynthetic medium, which was used for the measurement of intracellular ATP levels as described above. […]."}, "C. albicans cells": {"test_system": "C. albicans cells", "settings": "cited from earlier work"}},
  "note": "Values joined by “and” are separate entries in the source; they are usually repeats but may differ in a detail not shown here. Identical values can stand only once.",
  "data": [
    {"molecule": "N=C(N)c1ccc(OCCCC2CCN(CCCOc3ccc(C(=N)N)cc3)CC2)cc1", "note": "[T-2307]", "values": [
      {"measurement": "effect on oxygen consumption in whole yeast cells", "setting": "whole yeast cells", "result": "dose-dependent inhibition of respiration"},
      {"measurement": "IC50", "setting": "[1]", "result": "755 ± 73", "unit": "µM"},
      {"measurement": "IC50", "setting": "[2]; bovine heart mitochondria, read-out: IC50 ± SD, Complex I", "result": "> 3000", "unit": "µM"},
      {"measurement": "remaining activity at 3000 µM", "setting": "[2]; bovine, read-out: remaining enzymatic activity of complex I", "result": 68, "unit": "%"},
      {"measurement": "IC50 for complex IV in bovine heart mitochondria relative to yeast mitochondria", "setting": "[3]", "result": "> 10", "unit": "fold"},
      {"measurement": "IC50", "setting": "[3]; bovine heart mitochondria, read-out: IC50 ± SD, Complex IV", "result": "> 3000", "unit": "µM"},
      {"measurement": "remaining activity at 3000 µM", "setting": "[3]; read-out: remaining enzymatic activity of complex IV", "result": 92, "unit": "%"},
      {"measurement": "concentration that significantly decreased intracellular ATP levels", "setting": "Saccharomyces cerevisiae [4]", "result": "≥ 0.01", "unit": "µM"},
      {"measurement": "reduction in intracellular ATP level", "setting": "Saccharomyces cerevisiae [4]", "result": "~80", "unit": "%"},
      {"measurement": "reduction in intracellular ATP levels", "setting": "Saccharomyces cerevisiae [4]", "result": "> 50", "unit": "%"},
      {"measurement": "MIC", "setting": "Saccharomyces cerevisiae [5]; 72 h", "result": "0.0068 µg/mL and 0.0156 µM"},
      {"measurement": "inhibition at 0.125 µM", "setting": "Saccharomyces cerevisiae [5]; read-out: growth inhibition", "result": "> 75", "unit": "%"},
      {"measurement": "concentration in cells relative to extracellular medium", "setting": "C. albicans cells", "result": "> 3,000 fold"}
    ]}
  ]
}
